According to patent publication US20220112479A1, “COMPOUNDS STABILIZING AMYLASES IN LIQUIDS” (BASF SE, priority 2018, published 2022):

Key:
Type in all cases: biochemical
[1] = test system: Amy3=Stainzyme Plus L (12L); assay: amylase storage stability in liquid formulation (pNP release from Ethyliden-blocked-pNPG7); settings: base formulation II., 1.5 wt % component (a), storage at 37° C.
Method: (§1) The storage stability of amylase was assessed at 37° C.
Base test formulations were manufactured by making base formulations I to V by mixing the components according to Table 1.
Amylases used: Amy1=Stainzyme, Amy2=Amplify, Amy3=Stainzyme Plus L (12L)
The respective component (a) or comparative compound was added, if applicable, to the respective base formulation in amounts as indicated in Table 1.
The amount of amylase as provided in Table 1 refers to active protein.
Water was added to accomplish the balance to 100.
(§2) Amylase activity at certain points in time as indicated in Table 2 was measured quantitatively by the release of the chromophore para-nitrophenol (pNP) from the substrate (Ethyliden-blocked-pNPG7, Roche Applied Science 10880078103). The alpha-amylase degrades the substrate into smaller molecules and α-glucosidase (Roche Applied Science 11626329103), which is present in excess compared to the amylase, process these smaller products until pNP is released; the release of pNP, measured via an increase of absorption at 405 nm, is directly proportional to the amylase activity of the sample. Amylase standard: Termamyl 120 L (Sigma 3403).
(§3) The amylolytic activity values provided were calculated referring to the value determined in the reference formulation at the time 0.
(§4) The nomenclature of formulations is as follows: the Roman number before the full stop characterizes the base formulation, the Arabian number the type of compound (A.# compound according to invention (component (a)); B.# comparative compound).

Savinase Ultra 16.0L = molecular target: T1, Savinase Ultra 16.0L (Lederbergia lenta, UniProt P29600); assay: protease storage stability in liquid formulation (Suc-AAPF-pNA substrate); settings: storage at 37° C.
T1 construct: purchased Sigma-Aldrich
T1 sequence (P29600 1-269): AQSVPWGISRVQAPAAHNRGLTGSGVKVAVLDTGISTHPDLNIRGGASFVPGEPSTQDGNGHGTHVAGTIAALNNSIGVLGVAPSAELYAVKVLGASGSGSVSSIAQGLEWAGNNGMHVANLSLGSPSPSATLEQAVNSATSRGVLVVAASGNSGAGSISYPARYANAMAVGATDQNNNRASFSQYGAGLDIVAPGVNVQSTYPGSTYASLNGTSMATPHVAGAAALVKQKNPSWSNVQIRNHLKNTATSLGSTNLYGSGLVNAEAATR
Summary of the method: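 Savinase in liquid base formulations containing test salt, comparative compound or diethylene glycol; amounts given as active protein. Residual activity at set storage times measured with Suc-AAPF-pNA via pNA release at OD405, 20 °C. Activity expressed relative to reference formulation at time 0.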

Amylase = assay: amylase storage stability in liquid laundry formulation (pNP release from Ethyliden-blocked-pNPG7); set-up: key: % of activity in reference formulation at time 0; settings: 2.5 wt % component (a), storage at 37° C.
Method: as §1
Base test formulations were manufactured by making base formulations VI to IX by mixing the components according to Table 4.
as §2, with “Table 5” for “Table 2”
as §3, §4

For `CCCOC(=O)CC(O)(CC(=O)OCCC)C(=O)OCCC` [A.2, Tripropylcitrate], the “amylase activity, referring to reference formulation at time 0” value (“amylase activity, referring” below) ([1]; 3 d) was 100, the “amylase activity, referring” value ([1]; 7 d) was 97 and the “amylase activity, referring” value ([1]; 14 d) was 93. For the same molecule, the “amylase activity, referring” value ([1]; 21 d) was 87, the “amylase activity, referring” value ([1]; 28 d) was 83 and the “amylase activity, referring” value ([1]; 42 d) was 69. For the same molecule, the “amylase activity, referring” value ([1]; T0) was 102, the “protease activity, referring to reference formulation at time 0” value (“protease activity, referring” for short) (Savinase Ultra 16.0L; base formulation I., 1.5 wt % component (a), 3 d) was 100 and the “protease activity, referring” value (Savinase Ultra 16.0L; base formulation I., 1.5 wt % component (a), 7 d) was 95. For the same molecule, the “protease activity, referring” value (Savinase Ultra 16.0L; base formulation I., 1.5 wt % component (a), 14 d) was 90, the “protease activity, referring” value (Savinase Ultra 16.0L; base formulation I., 1.5 wt % component (a), 21 d) was 85 and the “protease activity, referring” value (Savinase Ultra 16.0L; base formulation I., 1.5 wt % component (a), 28 d) was 81. For the same molecule, the “protease activity, referring” value (Savinase Ultra 16.0L; base formulation I., 1.5 wt % component (a), 42 d) was 71, the “protease activity, referring” value (Savinase Ultra 16.0L; base formulation I., 1.5 wt % component (a), T0) was 101 and the “protease activity, referring” value (Savinase Ultra 16.0L; base formulation II., 1.5 wt % component (a), 3 d) was 100. For the same molecule, the “protease activity, referring” value (Savinase Ultra 16.0L; base formulation II., 1.5 wt % component (a), 7 d) was 96, the “protease activity, referring” value (Savinase Ultra 16.0L; base formulation II., 1.5 wt % component (a), 14 d) was 91 and the “protease activity, referring” value (Savinase Ultra 16.0L; base formulation II., 1.5 wt % component (a), 21 d) was 87. The “protease activity, referring” value (Savinase Ultra 16.0L; base formulation II., 1.5 wt % component (a), 28 d) was 83, the “protease activity, referring” value (Savinase Ultra 16.0L; base formulation II., 1.5 wt % component (a), 42 d) was 72 and the “protease activity, referring” value (Savinase Ultra 16.0L; base formulation II., 1.5 wt % component (a), T0) was 101. The “protease activity, referring” value (Savinase Ultra 16.0L; base formulation III., 1.5 wt % component (a), 3 d) was 100, the “protease activity, referring” value (Savinase Ultra 16.0L; base formulation III., 1.5 wt % component (a), 7 d) was 95 and the “protease activity, referring” value (Savinase Ultra 16.0L; base formulation III., 1.5 wt % component (a), 14 d) was 93. For the same molecule, the “protease activity, referring” value (Savinase Ultra 16.0L; base formulation III., 1.5 wt % component (a), 21 d) was 88, the “protease activity, referring” value (Savinase Ultra 16.0L; base formulation III., 1.5 wt % component (a), 28 d) was 83 and the “protease activity, referring” value (Savinase Ultra 16.0L; base formulation III., 1.5 wt % component (a), 42 d) was 73. The “protease activity, referring” value (Savinase Ultra 16.0L; base formulation III., 1.5 wt % component (a), T0) was 101, the “protease activity, referring” value (Savinase Ultra 16.0L; base formulation V., 2.0 wt % component (a), 3 d) was 95 and the “protease activity, referring” value (Savinase Ultra 16.0L; base formulation V., 2.0 wt % component (a), 7 d) was 92. For the same molecule, the “protease activity, referring” value (Savinase Ultra 16.0L; base formulation V., 2.0 wt % component (a), 14 d) was 87, the “protease activity, referring” value (Savinase Ultra 16.0L; base formulation V., 2.0 wt % component (a), 21 d) was 82 and the “protease activity, referring” value (Savinase Ultra 16.0L; base formulation V., 2.0 wt % component (a), 28 d) was 77. The “protease activity, referring” value (Savinase Ultra 16.0L; base formulation V., 2.0 wt % component (a), 42 d) was 70, the “protease activity, referring” value (Savinase Ultra 16.0L; base formulation V., 2.0 wt % component (a), T0) was 100 and the “amylase activity, referring” value (Amylase; laundry base formulation IX. (2.5 DTPA), 3 d) was 93. The “amylase activity, referring” value (Amylase; laundry base formulation IX. (2.5 DTPA), 7 d) was 85, the “amylase activity, referring” value (Amylase; laundry base formulation IX. (2.5 DTPA), 14 d) was 81 and the “amylase activity, referring” value (Amylase; laundry base formulation IX. (2.5 DTPA), 21 d) was 72. The “amylase activity, referring” value (Amylase; laundry base formulation IX. (2.5 DTPA), 28 d) was 63, the “amylase activity, referring” value (Amylase; laundry base formulation IX. (2.5 DTPA), T0) was 100 and the “amylase activity, referring” value (Amylase; laundry base formulation VI. (2.0 EDTA), 3 d) was 94. The “amylase activity, referring” value (Amylase; laundry base formulation VI. (2.0 EDTA), 7 d) was 86, the “amylase activity, referring” value (Amylase; laundry base formulation VI. (2.0 EDTA), 14 d) was 80 and the “amylase activity, referring” value (Amylase; laundry base formulation VI. (2.0 EDTA), 21 d) was 74. The “amylase activity, referring” value (Amylase; laundry base formulation VI. (2.0 EDTA), 28 d) was 65, the “amylase activity, referring” value (Amylase; laundry base formulation VI. (2.0 EDTA), T0) was 101 and the “amylase activity, referring” value (Amylase; laundry base formulation VIII. (2.5 DTPA, no Savinase), 3 d) was 94. For the same molecule, the “amylase activity, referring” value (Amylase; laundry base formulation VIII. (2.5 DTPA, no Savinase), 7 d) was 87, the “amylase activity, referring” value (Amylase; laundry base formulation VIII. (2.5 DTPA, no Savinase), 14 d) was 83 and the “amylase activity, referring” value (Amylase; laundry base formulation VIII. (2.5 DTPA, no Savinase), 21 d) was 77. For the same molecule, the “amylase activity, referring” value (Amylase; laundry base formulation VIII. (2.5 DTPA, no Savinase), 28 d) was 69 and the “amylase activity, referring” value (Amylase; laundry base formulation VIII. (2.5 DTPA, no Savinase), T0) was 99.
